Measured values reported in article PMC10419252, “Synthesis, Properties, and Biomedical Application of Dicationic Gemini Surfactants with Dodecane Spacer and Carbamate Fragments” (International Journal of Molecular Sciences, 2023).
≈ marks a conversion by molar mass, not a printed value. Where “and” joins values, the source holds several entries; their conditions need not be identical. Equal entries are not always repeated. Where two headings read alike, the source gives them in different places.

Key:
[1] = test system: Enterococcus faecalis ATCC 29212; assay: Antimicrobial activity (Ef); assay type: cell-based
Procedure: (§1) The antimicrobial activity of the compounds was tested on Gram-positive Staphylococcus aureus ATCC 6538P FDA 209P (Sa), Bacillus cereus ATCC 10702 NCTC 8035 (Bc), Enterococcus faecalis ATCC 29212 (Ef), and Gram-negative bacteria Escherichia coli ATCC 25922 (Ec), Pseudomonas aeruginosa ATCC 9027 (Pa), including methicillin-resistant strains of S. aureus MRSA-1 (resistant to fluoroquinolones and beta-lactams) and MRSA-2 (resistant to beta-lactams). Antifungal activity was studied against Candida albicans ATCC 10231 (Ca), Trichophyton mentagrophytes var. gypseum 1773 (Tm), and Aspergillus niger BKMF-1119 (An). A more detailed description of the experiment is published in [21].

[2] = test system: Staphylococcus aureus ATCC 6538P FDA 209P; assay: Antimicrobial activity (Sa); assay type: cell-based
Procedure: as §1

[3] = test system: Bacillus cereus ATCC 10702 NCTC 8035; assay: Antimicrobial activity (Bc); assay type: cell-based
Procedure: as §1

[4] = Orange OT solubilization, spectrophotometry (Schott method for Nagg); assay type: physicochemical
Procedure: (§2) The cmc and the solubilizing capacity (S) of surfactants were determined using the spectral azo dye OOT and the non-steroidal anti-inflammatory drug IND. To obtain a saturated solution, an excess of OOT and IND was added to 2 mL of a surfactant solution, stirred, and kept for 48 and 24 h, respectively. After that, the solutions were filtered using Millex® Syringe Filters (Millipore, Burlington, MA, USA) with a pore size of 450 nm, and the optical density was measured. The absorption spectra were recorded on a Specord 250 Plus spectrophotometer (Analytik Jena AG, Jena, Germany). Quartz cells with a thickness of 1 and 0.5 cm (Hellma Analytics, Müllheim, Germany) were used for measurements.
(§3) The solubilizing capacity (S) was determined using the following formula:S = b/ε, where b is D/l = f (Csurf) dependency slope (above cmc), ε is the extinction coefficient (17,400 L/mol∙cm for OOT, and the extinction coefficients of IND are determined in GS solutions and presented in Figure S10).
The OOT solubilization method (Schott method) was used to calculate the micelle Nagg. The Nagg values were calculated for each point on the curve of dependence of the OOT-reduced optical density on the surfactant concentration above the cmc according to the presented formula:[…], where ε is the extinction coefficient of OOT, Csurf is the surfactant concentration above cmc, and D is the optical density.

Conductometry = assay type: physicochemical; conditions: 298 K
Procedure: The electrical conductivity of the micellar solutions was determined on an InoLab Cond 7110 conductometer (WTW, Weilheim, Germany). For the experiment, surfactant solutions with a volume of 10 mL were prepared. The electrical conductivity of all solutions was recorded at 298 K, and the electrode was washed with purified water after each measurement. The cmc was determined from the breakpoint of the dependence of electrical conductivity on the concentration of surfactants.

[5] = biological target: T1, human acetylcholinesterase (hAChE) (Homo sapiens, UniProt P22303); assay: biochemical
T1 construct: purchased Sigma-Aldrich
Procedure: (§4) Stock solutions (0.01 M) of the compounds were dissolved in H2O. The inhibitory activity of compounds against hAChE and hBChE was measured using Ellman’s method. Enzyme-catalyzed hydrolysis was carried out in 0.1 M PBS (pH = 8.0) containing 0.1 nM hAChE or hBChE, 0.1 mM 5,5′-dithiobis-(2-nitrobenzoic acid) and 1mM acetylthiocholine or butyrylthiocholine as substrates. The tested compounds were incubated with the enzyme for 5 min prior to the addition of the substrate. Analyses were performed at 298 K using a Shimadzu UV-1800 spectrophotometer (Shimadzu Co., Kyoto, Japan) at 412 nm. The substrate hydrolysis rate was measured within 2 min. A sample without inhibitor was used as a control (100% cholinesterase activity). A sample without substrate was used as a blank. The experiments were conducted in triplicate. The percentage of enzyme inhibition was determined using OriginPro 8.5 software (OriginLab Corporation, Northampton, MA, USA) by plotting a percentage of the inhibition versus compound concentration. IC50 values (inhibitor concentration required to inhibit enzyme activity by 50%) were determined by the Hill equation: E/Emax=[I]^n/IC50n+[I]^n, where E is enzyme activity in the presence of the compound, and [I] is the compound concentration.

[6] = test system: methicillin-resistant S. aureus MRSA-2 (resistant to beta-lactams); assay: Antimicrobial activity (MRSA-2); assay type: cell-based
Procedure: as §1

[7] = test system: Trichophyton mentagrophytes var. gypseum 1773; assay: Antifungal activity (Tm); assay type: cell-based
Procedure: as §1

Pyrene fluorimetry = assay type: physicochemical; conditions: 298 K
Procedure: To determine cmc by fluorimetry, a hydrophobic probe pyrene was added to a series of surfactant solutions at a concentration of 1 μM. The solutions were kept for 30–40 min for complete solubilization of the probe. The fluorescent emission spectra of pyrene were recorded on an F-7100 fluorimeter (Hitachi, Tokyo, Japan) using 10 × 4 mm quartz cuvette (Hellma Analytics, Müllheim, Germany) with the following settings: λex = 335 nm, λem = 350–600 nm, and scanning speed = 1200 nm/min. The cmc was calculated from the dependence of the pyrene polarity index (the ratio of the intensities of the first (373 nm) and third (383 nm) peaks) on the surfactant concentration.

[8] = test system: Candida albicans ATCC 10231; assay: Antifungal activity (Ca); assay type: cell-based
Procedure: as §1

[9] = test system: Aspergillus niger BKMF-1119; assay: Antifungal activity (An); assay type: cell-based
Procedure: as §1

[10] = Indomethacin solubilization, spectrophotometry; assay type: physicochemical; conditions: 298 K
Procedure: as §2, §3

[11] = test system: Pseudomonas aeruginosa ATCC 9027; assay: Antimicrobial activity (Pa); assay type: cell-based
Procedure: as §1

[12] = Tensiometry (Du Nouy ring), surface tension isotherms; assay type: physicochemical
Procedure: The surface tension isotherms of the micellar solutions were determined using the Du Nouy platinum ring detachment method on a K6 tensiometer (KRŰSS GmbH, Hamburg, Germany). For the experiment, surfactant solutions with a volume of 10 mL were prepared. The measurements were carried out strictly at 298 K in glass beakers, the diameter of which exceeded the diameter of the platinum ring. Surface tension measurements were carried out until stable values were obtained. After each measurement, the ring was degreased in ethanol and thoroughly dried. The cmc of the micellar solutions was determined from the breakpoint on the isotherm of surface tension versus surfactant concentration. The thermodynamic parameters of adsorption and micellization were calculated for all systems based on the obtained tensiometric curves.

[13] = test system: Escherichia coli ATCC 25922; assay: Antimicrobial activity (Ec); assay type: cell-based
Procedure: as §1

[14] = test system: methicillin-resistant S. aureus MRSA-1 (resistant to fluoroquinolones and beta-lactams); assay: Antimicrobial activity (MRSA-1); assay type: cell-based
Procedure: as §1

[15] = biological target: T2, human butyrylcholinesterase (hBChE) (Homo sapiens, UniProt P06276); assay: In vitro cholinesterase inhibition, Ellman's method (hBChE); assay type: biochemical
T2 construct: purchased Sigma-Aldrich
Procedure: as §4

[16] = test system: methicillin-resistant S. aureus MRSA-1 (resistant to fluoroquinolones and beta-lactams); conditions: cited from earlier work

T1 sequence (P22303 32-614): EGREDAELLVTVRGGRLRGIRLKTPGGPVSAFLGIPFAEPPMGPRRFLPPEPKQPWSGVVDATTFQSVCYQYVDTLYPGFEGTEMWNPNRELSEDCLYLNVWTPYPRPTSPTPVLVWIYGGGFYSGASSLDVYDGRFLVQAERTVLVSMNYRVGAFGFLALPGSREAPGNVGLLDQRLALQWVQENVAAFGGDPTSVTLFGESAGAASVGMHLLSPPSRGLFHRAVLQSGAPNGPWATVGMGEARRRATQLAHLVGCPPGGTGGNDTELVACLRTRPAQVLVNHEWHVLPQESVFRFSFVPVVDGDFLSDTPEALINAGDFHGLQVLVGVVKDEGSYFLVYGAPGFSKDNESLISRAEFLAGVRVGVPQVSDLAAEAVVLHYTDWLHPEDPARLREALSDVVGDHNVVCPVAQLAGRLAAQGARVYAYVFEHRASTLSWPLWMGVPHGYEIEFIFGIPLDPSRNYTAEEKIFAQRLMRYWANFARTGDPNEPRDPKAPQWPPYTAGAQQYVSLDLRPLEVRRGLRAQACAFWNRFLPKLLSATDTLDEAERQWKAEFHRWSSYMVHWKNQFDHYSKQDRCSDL
T2 sequence (P06276 29-602): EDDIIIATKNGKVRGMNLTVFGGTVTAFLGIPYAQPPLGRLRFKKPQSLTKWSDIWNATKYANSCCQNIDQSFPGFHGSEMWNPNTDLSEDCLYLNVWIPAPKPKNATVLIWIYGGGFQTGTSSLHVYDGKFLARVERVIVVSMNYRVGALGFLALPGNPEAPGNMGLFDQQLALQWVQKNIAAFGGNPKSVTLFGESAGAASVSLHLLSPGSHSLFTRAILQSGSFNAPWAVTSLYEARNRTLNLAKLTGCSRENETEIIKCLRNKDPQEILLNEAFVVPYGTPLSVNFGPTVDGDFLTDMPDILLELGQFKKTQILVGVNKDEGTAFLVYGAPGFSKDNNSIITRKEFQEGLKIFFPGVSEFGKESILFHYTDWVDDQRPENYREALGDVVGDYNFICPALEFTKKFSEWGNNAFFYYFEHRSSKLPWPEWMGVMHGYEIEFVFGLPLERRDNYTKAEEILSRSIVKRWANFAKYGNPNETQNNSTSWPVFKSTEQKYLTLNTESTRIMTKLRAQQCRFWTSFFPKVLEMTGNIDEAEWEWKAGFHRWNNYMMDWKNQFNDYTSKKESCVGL

Compound: CCCCCCCCCC[N+](C)(CCCCCCCCCCCC[N+](C)(CCCCCCCCCC)CCOC(=O)NCC)CCOC(=O)NCC (stereo not shown) [10-12-10(Et)]
- MBC, Ef [1]: 0.5 ± 0.04 µg/mL
- MIC, Ef [1]: 0.5 ± 0.03 µg/mL
- MBC, Sa [2]: 0.5 ± 0.04 µg/mL
- MIC, Sa [2]: 0.5 ± 0.03 µg/mL
- MBC, Bc [3]: 0.5 ± 0.03 µg/mL
- MIC, Bc [3]: 0.5 ± 0.04 µg/mL
- S (solubilizing capacity), OOT [4]: 0.021 molOOT/molGS
- S (solubilizing capacity), OOT ([4]; 298 K): 0.021 molprobe/molGS
- cmc, Spectrophotometry ([4]; OOT, 298 K): 1.5 ± 0.1 mM
- Nagg (aggregation number) ([4]; Schott approach, OOT solubilization, 298 K): 50
- cmccond (Conductometry): 1.5 mM and 1.5 ± 0.04 mM
- βcond (degree of counterion binding) (Conductometry): 0.41
- IC50 [5]: 43.1 ± 0.9 nM
- SIhBChE/hAChE (selectivity index) ([5]; IC50 hBChE / IC50 hAChE): 0.44
- MBC, MRSA-2 [6]: 3.9 ± 0.3 µg/mL
- MIC, MRSA-2 [6]: 0.5 µg/mL and 0.5 ± 0.03 µg/mL
- MFC, Tm [7]: 15.6 ± 1.3 µg/mL
- MIC, Tm [7]: 0.9 ± 0.07 µg/mL
- cmc, Fluorimetry (Pyrene fluorimetry): 0.9 mM and 0.9 ± 0.03 mM
- MFC, Ca [8]: 15.6 ± 1.2 µg/mL
- MIC, Ca [8]: 0.9 ± 0.07 µg/mL
- MFC, An [9]: >250 µg/mL
- MIC, An [9]: 250 ± 19 µg/mL
- S (solubilizing capacity), IND [10]: 0.13 molprobe/molGS
- MBC, Pa [11]: 3.9 ± 0.3 µg/mL
- MIC, Pa [11]: 1.9 ± 0.1 µg/mL
- Amin (surface area per surfactant molecule) ([12]; 298 K): 2.34 nm^2
- Гmax∙10^6 (maximum surface excess) ([12]; 298 K): 0.71 mol∙m^−2
- ∆Gmic (free energy of micellization) ([12]; 298 K): -6.09 kcal/mol
- calculated adsorption layer thickness ([12]; air/water interface): 0.7 nm
- cmctens ([12]; tensiometry, 298 K): 1 mM and 1 ± 0.03 mM
- MBC, Ec [13]: 0.5 ± 0.03 µg/mL
- MIC, Ec [13]: 0.5 ± 0.03 µg/mL
- MBC, MRSA-1 [14]: 1.9 ± 0.1 µg/mL
- MIC, MRSA-1 [14]: 0.5 µg/mL and 0.5 ± 0.03 µg/mL
- IC50 [15]: 19 ± 5 nM

Compound: CC(=O)N1CCN(c2ccc(OCC3COC(Cn4ccnc4)(c4ccc(Cl)cc4Cl)O3)cc2)CC1 (stereo not shown) [Ketoconazole, reference compound]
- MFC ([7]; Trichophyton mentagrophytes, read-out: MFC, Tm): 3.9 ± 0.3 µg/mL (≈ 7.34 µM)
- MIC ([7]; Trichophyton mentagrophytes, read-out: MIC, Tm): 3.9 ± 0.3 µg/mL (≈ 7.34 µM)
- MFC ([8]; Candida albicans, ATCC10231, read-out: MFC, Ca): 3.9 ± 0.3 µg/mL (≈ 7.34 µM)
- MIC ([8]; Candida albicans, ATCC10231, read-out: MIC, Ca): 3.9 ± 0.3 µg/mL (≈ 7.34 µM)
- MFC ([9]; Aspergillus niger, BKMF1119, read-out: MFC, An): 125 ± 10 µg/mL (≈ 235 µM)
- MIC ([9]; Aspergillus niger, BKMF1119, read-out: MIC, An): 15.6 ± 1.3 µg/mL (≈ 29.4 µM)

Compound: O=C(O)c1cn(C2CC2)c2cc(N3CCNCC3)c(F)cc2c1=O [Ciprofloxacin]
- effectiveness toward MRSA-1 compared with 10-12-10(Et) [16]: two orders of magnitude less effective
